The values that follow come from patent publication US20090215758A1, “Use of 2,5-Disubstituted Thiazol-4-One Derivatives in Drugs” (Gruenenthal GmbH, priority 2005, published 2009).

By inhibition is commonly meant the relative decrease from the control value, in per cent. In general, EC50 refers to the concentration needed to bring the measured effect to its halfway point. Lower therefore signals higher potency in that assay.

Structures are written as SMILES.

The target in test [1] is T1, vanilloid receptor 1 (VR1/TRPV1) of the rat species (Rattus norvegicus, UniProt O35433).
T1 construct: The spinal column is removed from beheaded rats; from tissue; host or cells: primary cells from rat dorsal root ganglia (DRGs)
Briefly: Functional study on vanilloid receptor 1, FLIPR Ca2+ assay in rat dorsal root ganglia cells. The class given is cell-based. To be noted: for inhibition at 10 µM / activation at 10 µM: test compound 10 μM; for inhibition at 10 µM: 5 min incubation, then 100 nM capsaicin, relative to maximum inhibition with 10 μM capsaicin, read-out: VR1 (rat) (% inhibition compared to 10 μM CP); for activation at 10 µM: Ca2+ signal relative to 10 μM capsaicin (CP), read-out: VR1 (rat) (% stimulation compared to 10 μM CP); for EC50: unit inferred. The procedure: The agonistic or antagonistic action of the substances to be studied on the vanilloid receptor 1 (VR1/TRPV1) of the rat species can be determined with the following assay. In this assay, the Ca^2+ current through the receptor channel is quantified with the aid of a Ca^2+-sensitive dye (Fluo-4 type, Molecular Probes Europe BV, Leiden the Netherlands) in a fluorescent imaging plate reader (FLIPR, Molecular Devices, Sunnyvale, USA).
Complete medium: 50 ml HAMS F12 Nutrient Mixture (Gibco Invitrogen GmbH, Karlsruhe, Germany) with 10% by volume of FCS (fetal calf serum, Gibco Invitrogen GmbH, Karlsruhe, Germany, heat-inactivated);
2 mM L-glutamine (Sigma, Munich, Germany);
1% by weight of AA solution (antibiotic/antimycotic solution, PAA, Pasching, Austria) and 25 ng/ml of NGF medium (2.5 S, Gibco Invitrogen GmbH, Karlsruhe, Germany)
Cell culture plate: poly-D-lysine-coated, black 96-hole plates with a clear bottom (96 well black/clear plate, BD Biosciences, Heidelberg, Germany) are additionally coated with laminin (Gibco Invitrogen GmbH, Karlsruhe, Germany) by diluting laminin to a concentration of 100 μg/ml with PBS (Ca—Mg-free PBS, Gibco Invitrogen GmbH, Karlsruhe, Germany). Aliquots having a concentration of 100 μg/ml of laminin are withdrawn and stored at −20° C. The aliquots are diluted with PBS in a ratio of 1:10 to 10 μg/ml of laminin and in each case 50 μl of the solution are pipetted into a well of the cell culture plate. The cell culture plates are incubated at 37° C. for at least two hours, the supernatant solution is removed by suction and the wells are each washed twice with PBS. The coated cell culture plates are stored with supernatant PBS which is not removed until directly before the application of the cells.
The spinal column is removed from beheaded rats and placed directly into cold HBSS buffer (Hank's buffered saline solution, Gibco Invitrogen GmbH, Karlsruhe, Germany), i.e. placed in an ice bath, which has been admixed with 1% by volume of an AA solution (antibiotic/antimycotic solution, PAA, Pasching, Austria). The spinal column is severed longitudinally and removed from the spinal canal together with fasciae. Subsequently, the dorsal root ganglia (DRGs) are removed and in turn stored in cold HBSS buffer admixed with 1% by volume of an AA solution. The DRGs freed completely of blood residues and spinal nerves are in each case transferred to 500 μl of cold type 2 collagenase (PAA, Pasching, Austria) and incubated at 37° C. for 35 minutes. […] After complete incubation, the enzyme solution is cautiously pipetted off and the remaining DRGs are each suspended with 500 μl of complete medium.
The DRGs are each suspended repeatedly, drawn through cannulas No. 1, No. 12 and No. 16 by means of a syringe and transferred to 50 ml Falcon tubes which are made up to 15 ml with complete medium. The contents of each Falcon tube are in each case filtered through a 70 μm Falcon filter insert and centrifuged at 1200 revolutions and room temperature for 10 minutes. The resulting pellet is in each case taken up in 250 μl of complete medium and the cell count is determined.
The number of cells in the suspension is adjusted to 3 times 10^5 per ml and in each case 150 μl of this suspension are added to one well of the cell culture plates coated as described above.
Subsequently, the cells are laden with 2 μM Fluo-4 and 0.01% by volume of Pluronic F127 (Molecular Probes Europe BV, Leiden, the Netherlands) in HBSS buffer (Hank's buffered saline solution, Gibco Invitrogen GmbH, Karlsruhe, Germany) at 37° C. for 30 min, washed 3× with HBSS buffer and, after a further incubation of 15 minutes, used in the FLIPR assay at room temperature for Ca^2+ measurement. The Ca^2+-dependent fluorescence is measured before and after addition of substances (λex=488 nm, λem=540 nm). The quantification is effected by the measurement of the highest fluorescence intensity (FC, fluorescence counts) over the time.

In a further test the target is T2, VR1 (human) (Homo sapiens, UniProt Q8NER1).
T2 construct: expressed in transfected cells; host or cells: CHO K1 cells (ECACC), stably transfected
Briefly: Functional study on vanilloid receptor (VR1), FLIPR Ca2+ assay in CHO K1 cells stably transfected with the VR1 gene. It counts as cell-based. To be noted: for inhibition at 10 µM / activation at 10 µM: CHO-K1, test compound 10 μM; for inhibition at 10 µM: 5 min incubation, then 100 nM capsaicin, compared to 10 μM CP; for activation at 10 µM: Ca2+ signal relative to 10 μM capsaicin (CP), read-out: VR1 (human) (% stimulation compared to 10 μM CP); for EC50: unit inferred. From the text: The agonistic or antagonistic action of the substances to be tested on vanilloid receptor (VR1) can also be determined with the assay which follows. In this assay, the Ca^2+ current through the channel is quantified with the aid of a Ca^2+-sensitive dye (Fluo-4 type, Molecular Probes, Europe BV, Leiden, the Netherlands) in a fluorescent imaging plate reader (FLIPR, Molecular Devices, Sunnyvale, USA).
Chinese hamster ovary cells (CHO K1 cells, European Collection of Cell Cultures (ECACC) Great Britain) are transfected stably with the VR1 gene. For functional studies, these cells are plated out onto poly-D-lysine-coated black 96-well plates with a clear bottom (BD Biosciences, Heidelberg, Germany) in a density of 25 000 cells/well. The cells are incubated overnight at 37° C. and 5% CO2 in a culture medium (Ham's Nutrient Mixture F12, 10% by volume of FCS (fetal calf serum), 18 μg/ml of L-proline). The next day, the cells are incubated with Fluo-4 (Fluo-4 2 μM, Pluronic F127 0.01% by volume, Molecular Probes in HBSS (Hank's buffered saline solution), Gibco Invitrogen GmbH, Karlsruhe, Germany) at 37° C. for 30 minutes. Subsequently, the plates are washed 3 times with HBSS buffer and, after a further incubation of 15 minutes at room temperature, used for Ca^2+ measurement in FLIPR. The Ca^2+-dependent fluorescence is measured before and after addition of the substances to be studied (wavelength λex=488 nm, λem=540 nm). The quantification is effected by measuring the highest fluorescence intensity (FC, fluorescence counts) over the time.
The FLIPR protocol consists of 2 substance additions. First, the substances to be tested (10 μM) are pipetted onto the cells and the Ca current is compared with the control (capsaicin 10 μM) (% activation based on the Ca^2+ signal after addition of 10 μM capsaicin). After incubation for 5 minutes, 100 nM capsaicin is applied and the current of Ca^2+ is likewise determined.

T1 sequence (O35433 whole entry): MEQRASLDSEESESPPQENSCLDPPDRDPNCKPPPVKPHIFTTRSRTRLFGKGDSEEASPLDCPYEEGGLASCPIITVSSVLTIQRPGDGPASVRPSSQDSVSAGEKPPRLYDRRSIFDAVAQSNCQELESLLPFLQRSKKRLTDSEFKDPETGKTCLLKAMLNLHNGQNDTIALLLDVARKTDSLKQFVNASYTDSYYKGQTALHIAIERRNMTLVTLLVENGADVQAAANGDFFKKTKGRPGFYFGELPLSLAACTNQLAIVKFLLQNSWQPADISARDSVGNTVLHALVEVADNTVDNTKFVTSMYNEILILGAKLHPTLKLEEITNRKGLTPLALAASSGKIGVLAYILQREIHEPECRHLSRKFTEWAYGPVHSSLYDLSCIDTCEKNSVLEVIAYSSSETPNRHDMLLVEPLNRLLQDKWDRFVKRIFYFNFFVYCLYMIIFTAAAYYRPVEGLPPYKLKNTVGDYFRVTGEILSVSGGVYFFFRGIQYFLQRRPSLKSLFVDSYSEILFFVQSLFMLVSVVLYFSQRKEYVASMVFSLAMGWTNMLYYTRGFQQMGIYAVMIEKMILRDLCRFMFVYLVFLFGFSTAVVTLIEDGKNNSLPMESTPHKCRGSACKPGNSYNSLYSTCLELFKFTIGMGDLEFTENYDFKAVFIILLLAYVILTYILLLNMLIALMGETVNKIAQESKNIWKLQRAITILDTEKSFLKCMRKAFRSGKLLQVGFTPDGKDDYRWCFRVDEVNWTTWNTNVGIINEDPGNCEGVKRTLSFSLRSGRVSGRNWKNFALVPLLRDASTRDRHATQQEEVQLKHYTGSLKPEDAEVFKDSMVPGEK
T2 sequence (Q8NER1 whole entry): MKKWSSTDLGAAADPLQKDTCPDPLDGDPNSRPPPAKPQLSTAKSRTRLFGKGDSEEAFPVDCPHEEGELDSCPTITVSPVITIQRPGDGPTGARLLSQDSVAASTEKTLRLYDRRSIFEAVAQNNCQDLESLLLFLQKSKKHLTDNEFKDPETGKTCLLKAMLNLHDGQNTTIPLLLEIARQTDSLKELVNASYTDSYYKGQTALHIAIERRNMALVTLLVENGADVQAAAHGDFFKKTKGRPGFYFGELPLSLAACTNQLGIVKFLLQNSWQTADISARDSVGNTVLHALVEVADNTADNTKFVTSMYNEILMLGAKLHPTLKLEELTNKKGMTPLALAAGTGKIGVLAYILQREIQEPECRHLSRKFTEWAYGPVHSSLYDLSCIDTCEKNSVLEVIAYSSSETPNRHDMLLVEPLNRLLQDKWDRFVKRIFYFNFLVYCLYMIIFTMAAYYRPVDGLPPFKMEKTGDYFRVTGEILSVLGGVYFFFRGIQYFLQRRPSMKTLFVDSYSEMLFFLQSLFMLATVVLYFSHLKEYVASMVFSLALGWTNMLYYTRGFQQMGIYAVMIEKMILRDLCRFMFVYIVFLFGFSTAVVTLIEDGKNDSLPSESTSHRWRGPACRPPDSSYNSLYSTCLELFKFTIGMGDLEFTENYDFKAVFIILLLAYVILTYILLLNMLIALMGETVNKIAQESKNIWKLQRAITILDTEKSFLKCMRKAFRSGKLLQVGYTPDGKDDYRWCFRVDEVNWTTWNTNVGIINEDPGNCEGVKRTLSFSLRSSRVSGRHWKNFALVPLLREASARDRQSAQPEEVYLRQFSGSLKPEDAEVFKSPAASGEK

`COc1cc(C=C2SC(N3CCSCC3)=NC2=O)ccc1O` [Example 39, 5-(4-hydroxy-3-methoxybenzylidene)-2-thiomorpholin-4-ylthiazol-4-one]: in test [1], the inhibition at 10 µM stood at 51% and the activation at 10 µM was determined as 31.2%. Also, at VR1 (human), the inhibition at 10 µM came to 23.7% and the activation at 10 µM was found to be 18.9%.

With `O=C1N=C(N2CCSCC2)SC1=Cc1cccc2ccccc12` [Example 41, 5-naphthalen-1-ylmethylene-2-thiomorpholin-4-ylthiazol-4-one], in test [1], the inhibition at 10 µM came out at 90.9%, the activation at 10 µM was 87% and the concentration giving a half-maximal response (EC50) was found to be 5.82 µM. At VR1 (human), testing at 10 µM gave an inhibition of 22.6%, the activation at 10 µM came to 0.47% and the EC50 came out at 10.6 µM.

With `O=C1N=C(N2CCSCC2)SC1=Cc1ccccc1` [Example 42, 5-benzylidene-2-thiomorpholin-4-ylthiazol-4-one], in test [1], the inhibition at 10 µM was determined as 93.1% and the activation at 10 µM turned out to be 98.3%. Further, at VR1 (human), testing at 10 µM gave an inhibition of 50.2% and the activation at 10 µM stood at 49.7%.

For the molecule `CC(=CC=C1SC(N2CCOCC2)=NC1=O)c1cccc(C(F)(F)F)c1` [Example 44, 2-morpholin-4-yl-5-[3-(3-trifluoromethylphenyl)but-2-enylidene]thiazol-4-one], in test [1], the inhibition at 10 µM amounted to 64.3% and the activation at 10 µM came to 39.6%. Moreover, on VR1 (human), at 10 µM the inhibition was 34.3% and the activation at 10 µM was determined as 10.9%.

For `O=C1N=C(N2CCN(c3ncccc3Cl)CC2)SC1=Cc1ccc2ccccc2c1` [Example 49, 2-[4-(3-chloropyridin-2-yl)piperazin-1-yl]-5-naphthalen-2-ylmethylenethiazol-4-one], the inhibition at 10 µM stood at 78.5% in test [1] and 34.1% on VR1 (human). Besides, the figures for the activation at 10 µM (in test [1]; at VR1 (human)) were 0.4% and 0%, respectively.

As for `O=C1N=C(N2CCOCC2)SC1=CC(=Cc1ccccc1)c1ccccc1` [Example 50, 5-(2,3-diphenylallylidene)-2-morpholin-4-ylthiazol-4-one], in test [1], the inhibition at 10 µM was found to be 21.3% and the activation at 10 µM came to 7.19%. On VR1 (human), testing at 10 µM gave an inhibition of 51.6% and the activation at 10 µM was 0%.

As to `O=C1N=C(N2CCSCC2)SC1=Cc1ccc2ccccc2c1` [Example 54, 5-naphthalen-2-ylmethylene-2-thiomorpholin-4-ylthiazol-4-one], in test [1], the inhibition at 10 µM was determined as 87.9%, the activation at 10 µM worked out at 96.1% and the EC50 came to 2.5 µM. For the same molecule, on VR1 (human), the inhibition at 10 µM turned out to be 81.7%, the activation at 10 µM was found to be 79.6% and the concentration giving a half-maximal response (EC50) is above 25 µM.

In the case of `Cc1ccc(C=C2SC(N3CCN(Cc4ccccc4)CC3)=NC2=O)cc1` [Example 63, 2-(4-benzylpiperazin-1-yl)-5-(4-methylbenzylidene)thiazol-4-one], in test [1], the inhibition at 10 µM was 70.9% and the activation at 10 µM came to 0.34%. Further, on VR1 (human), testing at 10 µM gave an inhibition of 52.8% and the activation at 10 µM was 0%.

For the molecule `COc1cc(C=C2SC(N3CCN(c4ccccc4)CC3)=NC2=O)ccc1O` [Example 68, 5-(4-hydroxy-3-methoxybenzylidene)-2-(4-phenylpiperazin-1-yl)thiazol-4-one], in test [1], the inhibition at 10 µM was 11.6% and the activation at 10 µM was 73.4%. Moreover, on VR1 (human), the inhibition at 10 µM amounted to 39.3% and the activation at 10 µM was 54.3%.

With `O=C1N=C(N2CCSCC2)SC1=CC(Cl)=Cc1ccccc1` [Example 85, 5-(2-chloro-3-phenylallylidene)-2-thiomorpholin-4-ylthiazol-4-one], in test [1], the inhibition at 10 µM stood at 77.1% and the activation at 10 µM came to 54.9%. Besides, at VR1 (human), the inhibition at 10 µM was 97.5% and the activation at 10 µM is 82.5%.
